Patent US6180677A, “Tyrosine-derived compounds as calcium channel antagonists” (Warner-Lambert Company, priority 1999, dated 2001)
Where a name gives a salt, the structure may show the parent alone. Blank lines part the entries; values can stand above or below the molecule they belong to.

Key:
[1] = target: T1, N-type Ca^2+ channel (Homo sapiens, UniProt Q00975); experiment: N-type Ca2+ channel blocking potency in IMR-32 cells using the fluorescent Ca2+ indicator Indo-1; assay type: cell-based; conditions: for IC50: K+-stimulated Ca2+ flux, 5 μM nitrendipine to block L-type channels, read-out: IMR32 IC50; for IMR32 % @ 1: at 1 μM; for IMR32 % @ 1 / IMR32 % @ 10: 5 μM nitrendipine; for IMR32 % @ 10: at 10 μM
T1 construct: host or cells: IMR-32 human neuroblastoma cells, differentiated with dibutyryl cAMP and bromodeoxyuridine
Description: Measurement of N-type Ca^2+ Channel Blocking Potencies of Compounds in IMR-32 Cells Using the Fluorescent Ca^2+ Indicator Indo-1
IMR-32 cells are a human tumoral cell line of neural origin. […] Calcium flux into these cells may be induced by stimulation with elevated potassium concentrations. The L-channel component of calcium flux may be blocked by adding 5 μM nitrendipine. The remaining component of calcium entry into the IMR-32 cells is due to calcium flux through N-type calcium channels. Intracellular calcium concentrations are measured using the fluorescent calcium indicator Indo-1. The effect of drug concentration on calcium uptake is studied.
The IMR-32 cell line was obtained from the American Type Culture Collection (Rockville, Md.). Cells were grown in Eagle's Minimum Essential Medium with Earle's salts supplemented with 10% fetal bovine serum, 2 mM L-Gln and antibiotic/antimicotic mixture (Gibco). At approximately 80% confluency, differentiation was induced by the addition of 1 mM dibutyryl cAMP and 2.5 μM bromodeoxyuridine to the medium. After 7 to 13 days of differentiation, cells were detached using 0.5 mM EDTA and loaded with 5 μM Indo-1 acetoxymethyl ester (Molecular Probes, Eugene, Oreg.) at […] for 45 minutes. Loaded cells were washed twice, resuspended (~10^7 cells/mL) in assay buffer (10 mM HEPES/Tris pH 7.4 in Hank's Balanced Salt Solution without bicarbonate or phenol red containing 0.5% bovine serum albumin) and kept on ice until use. Fluorescence measurements were carried out in a Photon Technology International (PTI, South Brunswick, N.J.) Model RF-F3004 spectrofluorometer with dual emission monochromators using excitation at 350 nm and emission at 400 and 490 nm. The instrument was equipped with a thermostated cuvette holder with stirring capabilities, as well as with a computer-controlled pump that allowed for reagent addition during measurement. Instrument control and data collection was done by PTI's OSCAR software running on an IBM compatible computer. Different concentrations of the test compounds (60 μL in dimethyl sulfoxide) were added to 5.94 mL of assay buffer containing approximately 3×10^6 loaded cells, and 5 μM Nitrendipine (in 30 μL EtOH) to block L-type Ca^2+ channels. Samples were incubated for 10 minutes at 30° C. and then aliquoted into three 10×10 mm disposable acrylic cuvettes. Emission signals at 400 and 490 nm were acquired from each cuvette at 30° C. for 50 seconds. At 20 seconds after the start of reading, cells were depolarized by the addition of 160 μL of stimulation solution (1 M KCl, 68 mM CaCl2) to the cuvette via the computer-controlled pump. Ratio of dual emission signals (400 nm/490 nm), which is proportional to intracellular Ca^2+ concentration, was plotted against time, and the difference between maximal response after stimulation and basal value (before stimulation) was determined. Values obtained in this way were plotted as a function of drug concentration. IC50 values of test compounds were calculated by fitting a four-parameter logistic function to the data using the least squared method.

[2] = system: DBA/2 mice; experiment: Audiogenic seizure model in DBA/2 mice; assay type: in vivo; conditions: protected/tested
Description: Audiogenic Seizure Model in DBA/2 Mice
In Vivo Biological Protocol
A compound of the present invention was dissolved in water using 10% (weight/volume) Emulphor (GAF Corp., Wayne, N.J.) surfactant. Substances were administered by intravenous injection into the retro-orbital venous sinus. All testing was performed 15 minutes or 45 minutes after drug injection. All the male mice, 3 to 4 weeks old, were obtained from Jackson Laboratories, Bar Harbour, Me. Immediately before anticonvulsant testing, mice were placed upon a wire mesh, 4 inches square suspended from a steel rod. […] Any mouse falling from the wire mesh was scored as ataxic.
Mice were placed into an enclosed acrylic plastic chamber (21 cm height, approximately 30 cm diameter) with a high-frequency speaker (4 cm diameter) in the center of the top lid. An audio signal generator (Protek model B-810) was used to produce a continuous sinusoidal tone that was swept linearly in frequency between 8 kHz and 16 kHz once each 10 msec. The average sound pressure level (SPL) during stimulation was approximately 100 dB at the floor of the chamber. Mice were placed within the chamber and allowed to acclimatize for 1 minute. DBA/2 mice in the vehicle-treated group responded to the sound stimulus (applied until tonic extension occurred, or for a maximum of 60 seconds) with a characteristic seizure sequence consisting of wild running followed by clonic seizures, and later by tonic extension, and finally by respiratory arrest and death in 80% or more of the mice. In vehicle-treated mice, the entire sequence of seizures to respiratory arrest lasts approximately 15 to 20 seconds.
The incidence of all the seizure phases in the drug-treated and vehicle-treated mice was recorded, and the occurrence of tonic seizures were used for calculating anticonvulsant ED50 values by probit analysis. Mice were used only once for testing at each time and dose point.

[3] = 30 mg/kg IV, 15 minutes post treatment
[4] = 30 mg/kg IV, 45 minutes post treatment
[5] = 10 mg/kg IV, 15 minutes post treatment

T1 sequence (Q00975 whole entry): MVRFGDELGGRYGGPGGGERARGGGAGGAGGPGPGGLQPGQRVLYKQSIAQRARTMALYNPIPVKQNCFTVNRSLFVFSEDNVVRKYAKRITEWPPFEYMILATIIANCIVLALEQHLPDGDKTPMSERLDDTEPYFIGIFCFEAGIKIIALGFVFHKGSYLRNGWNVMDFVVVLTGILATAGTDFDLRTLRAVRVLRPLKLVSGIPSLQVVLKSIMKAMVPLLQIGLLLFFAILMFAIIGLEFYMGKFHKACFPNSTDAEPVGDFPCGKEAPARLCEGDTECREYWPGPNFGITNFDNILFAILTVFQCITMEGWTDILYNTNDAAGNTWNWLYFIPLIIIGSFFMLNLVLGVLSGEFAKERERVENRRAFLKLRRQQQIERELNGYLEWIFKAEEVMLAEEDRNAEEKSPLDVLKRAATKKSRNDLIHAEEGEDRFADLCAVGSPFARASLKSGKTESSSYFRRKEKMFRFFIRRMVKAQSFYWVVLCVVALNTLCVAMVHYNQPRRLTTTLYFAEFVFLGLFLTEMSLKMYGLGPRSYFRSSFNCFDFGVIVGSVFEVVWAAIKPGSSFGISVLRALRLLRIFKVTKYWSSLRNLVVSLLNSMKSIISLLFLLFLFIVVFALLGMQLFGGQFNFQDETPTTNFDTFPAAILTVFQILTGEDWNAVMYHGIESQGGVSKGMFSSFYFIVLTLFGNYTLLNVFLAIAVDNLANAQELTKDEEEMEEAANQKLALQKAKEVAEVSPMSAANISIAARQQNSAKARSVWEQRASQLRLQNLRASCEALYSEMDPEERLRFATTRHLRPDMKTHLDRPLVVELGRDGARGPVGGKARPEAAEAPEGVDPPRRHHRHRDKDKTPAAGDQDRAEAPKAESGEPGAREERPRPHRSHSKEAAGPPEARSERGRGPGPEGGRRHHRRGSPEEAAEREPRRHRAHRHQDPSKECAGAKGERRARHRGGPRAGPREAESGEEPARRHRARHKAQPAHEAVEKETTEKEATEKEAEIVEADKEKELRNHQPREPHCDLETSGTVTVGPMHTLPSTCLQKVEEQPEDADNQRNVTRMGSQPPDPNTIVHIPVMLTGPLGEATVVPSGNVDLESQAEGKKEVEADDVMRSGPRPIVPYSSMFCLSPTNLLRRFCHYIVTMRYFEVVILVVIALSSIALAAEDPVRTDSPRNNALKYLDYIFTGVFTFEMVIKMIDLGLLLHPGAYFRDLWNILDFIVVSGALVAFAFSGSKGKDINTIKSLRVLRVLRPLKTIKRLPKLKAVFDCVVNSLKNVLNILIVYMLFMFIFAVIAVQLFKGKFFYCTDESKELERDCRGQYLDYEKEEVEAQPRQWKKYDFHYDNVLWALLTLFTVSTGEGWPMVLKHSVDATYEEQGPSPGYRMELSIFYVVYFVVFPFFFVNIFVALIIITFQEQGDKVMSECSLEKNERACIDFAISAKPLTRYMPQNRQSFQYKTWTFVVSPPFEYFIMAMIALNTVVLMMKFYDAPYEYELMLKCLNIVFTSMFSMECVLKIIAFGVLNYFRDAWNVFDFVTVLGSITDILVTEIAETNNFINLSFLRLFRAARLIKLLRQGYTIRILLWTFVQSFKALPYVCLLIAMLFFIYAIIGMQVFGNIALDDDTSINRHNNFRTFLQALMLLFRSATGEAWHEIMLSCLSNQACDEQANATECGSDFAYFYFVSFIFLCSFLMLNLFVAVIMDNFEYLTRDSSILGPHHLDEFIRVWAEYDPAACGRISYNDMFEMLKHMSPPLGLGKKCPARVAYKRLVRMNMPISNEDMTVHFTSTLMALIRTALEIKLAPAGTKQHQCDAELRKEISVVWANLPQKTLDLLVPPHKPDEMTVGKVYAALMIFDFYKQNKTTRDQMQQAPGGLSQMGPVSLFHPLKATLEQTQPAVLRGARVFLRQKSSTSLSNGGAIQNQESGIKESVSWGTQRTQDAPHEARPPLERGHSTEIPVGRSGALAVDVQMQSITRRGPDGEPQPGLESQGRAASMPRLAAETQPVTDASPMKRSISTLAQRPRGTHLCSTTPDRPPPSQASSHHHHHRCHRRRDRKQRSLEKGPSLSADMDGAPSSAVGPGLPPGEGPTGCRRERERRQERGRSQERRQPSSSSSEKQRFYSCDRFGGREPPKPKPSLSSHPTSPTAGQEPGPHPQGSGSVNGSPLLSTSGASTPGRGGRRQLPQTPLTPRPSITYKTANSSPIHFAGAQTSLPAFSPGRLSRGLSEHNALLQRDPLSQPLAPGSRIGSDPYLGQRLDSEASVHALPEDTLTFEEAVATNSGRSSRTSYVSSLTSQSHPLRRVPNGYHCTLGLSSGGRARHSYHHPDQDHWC
T1 sequence (P54289 25-956 partner limits assumed): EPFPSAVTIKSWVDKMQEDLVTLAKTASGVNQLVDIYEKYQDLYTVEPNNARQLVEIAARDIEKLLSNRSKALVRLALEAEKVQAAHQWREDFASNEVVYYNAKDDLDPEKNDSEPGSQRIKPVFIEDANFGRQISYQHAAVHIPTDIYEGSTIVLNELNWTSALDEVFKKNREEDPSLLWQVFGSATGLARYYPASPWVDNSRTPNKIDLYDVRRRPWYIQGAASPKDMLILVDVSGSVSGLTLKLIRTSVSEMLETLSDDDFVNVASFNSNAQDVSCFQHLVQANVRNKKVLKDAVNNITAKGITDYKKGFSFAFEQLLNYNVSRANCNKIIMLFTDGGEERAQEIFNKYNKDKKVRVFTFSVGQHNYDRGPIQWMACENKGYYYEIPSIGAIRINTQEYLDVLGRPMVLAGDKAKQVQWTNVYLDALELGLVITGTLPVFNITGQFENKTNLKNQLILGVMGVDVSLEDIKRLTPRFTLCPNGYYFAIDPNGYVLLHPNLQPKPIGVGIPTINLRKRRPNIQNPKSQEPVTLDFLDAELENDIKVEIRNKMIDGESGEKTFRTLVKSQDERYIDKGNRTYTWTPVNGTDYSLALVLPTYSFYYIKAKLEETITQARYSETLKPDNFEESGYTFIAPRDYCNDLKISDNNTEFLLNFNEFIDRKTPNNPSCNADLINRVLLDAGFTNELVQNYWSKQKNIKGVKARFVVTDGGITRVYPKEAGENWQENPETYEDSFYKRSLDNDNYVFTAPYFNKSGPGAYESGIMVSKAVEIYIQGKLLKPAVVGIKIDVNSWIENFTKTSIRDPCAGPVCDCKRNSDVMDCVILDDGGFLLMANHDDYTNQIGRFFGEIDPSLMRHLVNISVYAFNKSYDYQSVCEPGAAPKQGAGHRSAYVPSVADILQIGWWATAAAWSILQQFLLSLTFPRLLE
T1 sequence (P54289 957-1103 partner limits assumed): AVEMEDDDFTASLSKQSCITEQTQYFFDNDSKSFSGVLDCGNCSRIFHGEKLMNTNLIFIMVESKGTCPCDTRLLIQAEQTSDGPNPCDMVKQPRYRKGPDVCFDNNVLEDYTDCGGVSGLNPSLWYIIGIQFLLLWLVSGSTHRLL
T1 sequence (P54284 whole entry partner): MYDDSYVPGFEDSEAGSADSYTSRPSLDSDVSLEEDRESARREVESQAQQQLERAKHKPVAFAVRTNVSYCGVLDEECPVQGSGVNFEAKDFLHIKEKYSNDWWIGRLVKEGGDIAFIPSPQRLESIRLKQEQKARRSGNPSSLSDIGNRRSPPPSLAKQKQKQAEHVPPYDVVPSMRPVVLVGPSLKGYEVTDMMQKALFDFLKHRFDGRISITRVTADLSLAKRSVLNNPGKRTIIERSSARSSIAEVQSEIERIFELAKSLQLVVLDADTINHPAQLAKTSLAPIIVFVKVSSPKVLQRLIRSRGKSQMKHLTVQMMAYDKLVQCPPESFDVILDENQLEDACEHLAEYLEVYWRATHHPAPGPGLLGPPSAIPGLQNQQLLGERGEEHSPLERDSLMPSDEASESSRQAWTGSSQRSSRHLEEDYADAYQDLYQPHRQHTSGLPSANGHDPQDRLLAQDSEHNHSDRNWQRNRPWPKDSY

Molecule: CC(C)CCC(CCC(C)C)N[C@@H](Cc1ccc(OCc2ccccc2)cc1)C(=O)NC(C)(C)C.Cl [Example 4, (S)-3-(4-Benzyloxy-phenyl)-N-tert-butyl-2-[4-methyl-1-(3-methyl-butyl)-pentylamino]-propionamide monohydrochloride]
- IMR32 % @ 1 [1]: 45%
- IMR32 % @ 10 [1]: 102%

Molecule: CC(C)(C)CCN(CCC(C)(C)C)[C@@H](Cc1ccc(OCc2ccccc2)cc1)C(=O)NC(C)(C)C [Example 8, (S)-3-(4-Benyloxy-phenyl)-2-[bis-(3,3-dimethyl-butyl)-amino]-N-tert-butyl-propionamide monohydrochloride]
- IC50 [1]: 790 nM

Molecule: CC(C)CCN(CCC(C)(C)C)[C@@H](Cc1ccc(OCc2ccccc2)cc1)C(=O)NC(C)(C)C.Cl [Example 6, (S)-3-(4-Benzyloxy-phenyl)-N-tert-butyl-2-[(3,3-dimethyl-butyl)-(3-methyl-butyl)-amino]-propionamide monohydrochloride]
- IC50 [1]: 440 nM
- Number of Mice Protected from Tonic Convulsions [2, 3]: 2/5
- Number of Mice Protected from Tonic Convulsions [2, 4]: 4/5

Molecule: CC(C)CCN(CC1CCCCC1)[C@@H](Cc1ccc(OCc2ccccc2)cc1)C(=O)NC(C)(C)C.Cl [Example 5, (S)-3-(4-Benzyloxy-phenyl)-N-tert-butyl-2-[cyclohexyl-methyl-(3-methyl-butyl)-amino]-propionamide monohydrochloride]
- IMR32 % @ 1 [1]: 27%
- IMR32 % @ 10 [1]: 61%

Molecule: CC(C)(C)CCN[C@@H](Cc1ccc(OCc2ccccc2)cc1)C(=O)NC(C)(C)C [Example 7, (S)-3-(4-Benzyloxy-phenyl)-N-tert-butyl-2-(3,3-dimethyl-butylamino)-propionamide monohydrochloride]
- IC50 [1]: 1400 nM

Molecule: (S)-3-(4-Benzyloxy-phenyl)-N-tert-butyl-2-(3-methyl-butylamino)-propionamide monohydrochloride [Example 2]
- IC50 [1]: 2000 nM

More lines, main results first:

- IC50 [1]: 760 nM
Molecule: CC(C)CCN(CCC(C)C)[C@@H](Cc1ccc(OCc2ccccc2)cc1)C(=O)NC(C)(C)C.Cl [Example 3, (S)-3-(4-Benzyloxy-phenyl)-2-[bis-(3-methyl-butyl)-amino]-N-tert-butyl-propionamide monohydrochloride]
- Number of Mice Protected from Tonic Convulsions [2, 3]: 4/5

- IC50 [1]: 170 nM
Molecule: CC(C)(C)c1ccc(CN(Cc2ccc(C(C)(C)C)cc2)C(CNCCN2CCCCC2)Cc2ccc(OCc3ccccc3)cc2)cc1 (centres unmarked) [Example 11, 3-(4-Benzyloxy-phenyl)-N^2, N^2-bis-(4-tert-butyl-benzyl)-N^1-(2-piperidin-1-yl-ethyl)-propane-1,2-diamine]

- IC50 [1]: 450 nM
Molecule: CC(C)(C)NCC(Cc1ccc(OCc2ccccc2)cc1)NCc1ccc(C(C)(C)C)cc1 (centres unmarked) [Example 14, 3-(4-Benzyloxy-phenyl)-N^1-tert-butyl-N^2-(4-tert-butyl-benzyl)-propane-1,2-diamine]
- Number of Mice Protected from Tonic Convulsions [2, 3]: 5/5
- Number of Mice Protected from Tonic Convulsions [2, 4]: 4/5

- IC50 [1]: 2000 nM
Molecule: CC(C)(C)NC(=O)[C@H](Cc1ccc(OCc2ccccc2)cc1)NCc1ccc(C(C)(C)C)cc1 [Example 9, (S)-3-(4-Benzyloxy-phenyl)-N-tert-butyl-2-(4-tert-butyl-benzylamino)-propionamide monohydrochloride]

- IC50 [1]: 700 nM
Molecule: CC(C)(C)c1ccc(CN[C@@H](Cc2ccc(OCc3ccccc3)cc2)C(=O)NCCN2CCCCC2)cc1 [Example 13, (S)-3-(4-Benzyloxy-phenyl)-2-(4-tert-butyl-benzylamino)-N-(2-piperidin-1-yl-ethyl)-propionamide]
- Number of Mice Protected from Tonic Convulsions [2, 5]: 0/5
- Number of Mice Protected from Tonic Convulsions ([2]; 10 mg/kg IV, 45 minutes post treatment): 1/5
- Number of Mice Protected from Tonic Convulsions [2, 3]: 4/5
- Number of Mice Protected from Tonic Convulsions [2, 4]: 4/5

- IC50 [1]: 680 nM
Molecule: CC(C)(C)c1ccc(CN(Cc2ccc(C(C)(C)C)cc2)[C@@H](Cc2ccc(OCc3ccccc3)cc2)C(=O)NCCN2CCCCC2)cc1 [Example 10, (S)-3-(4Benzyloxy-phenyl)-2-[bis-(4-tert-butyl-benzyl)-amino]-N-(2-piperidin-1-yl-ethyl)-propionamide]

- IC50 [1]: 1200 nM
Molecule: CC(C)(C)NC(=O)[C@H](Cc1ccc(OCc2ccccc2)cc1)NC(=O)C1(c2ccccc2)CCCC1 [Example 1, (S)-1-Phenyl-cyclopentanecarboxylic acid [2-(4-benzyloxy-phenyl)-1-tert-butylcarbamoyl-ethyl]-amide]

- IC50 [1]: 280 nM
Molecule: CC(C)(C)c1ccc(CNC(CNCCN2CCCCC2)Cc2ccc(OCc3ccccc3)cc2)cc1 (centres unmarked) [Example 12, 3-(4-Benzyloxy-phenyl)-N^2-(4-tert-butyl-benzyl)-N^1-(2-piperidin-1-yl-ethyl)-propane-1,2-diamine]
- Number of Mice Protected from Tonic Convulsions [2, 5]: 0/5
